According to article PMC12873548, “D-amino acid substitution and cyclization enhance the stability and antimicrobial activity of arginine-rich peptides” (Microbiology, 2026):
In brackets after ≈: the same amount, converted by molar mass. Residues, ends and D or L forms follow the SMILES beside them.

How the values were obtained:
[1] = tested on: Gram-positive and Gram-negative bacteria; type: cell-based; settings: span of MIC and MBC against both Gram-positive and Gram-negative bacteria, Table 2
Procedure: (§1) The MIC of arginine-based peptides was assessed using the microbroth dilution approach. Our in vitro screening included a panel of Gram-negative bacteria, Escherichia coli (ATCC 25922 and enterohaemorrhagic O157:H7) and Pseudomonas aeruginosa (PA01 and the drug-resistant strain NCTC 13437), and Gram-positive bacteria (Staphylococcus aureus ATCC 12600). Five-millilitre overnight cultures in Lysogeny broth, prepared from single isolated colonies, were diluted to 5×10^6 c.f.u. ml^−1 mid-log phase in Mueller–Hinton (MH) broth. Next, peptide concentrations (0 to 1 mM) were serially diluted twofold in 96-well plates and incubated overnight at 37 °C with the tested bacterial strains. In each case, the MIC was determined as the lowest peptide concentration at which no detectable bacterial growth was observed, employing an absorbance-based assay using a Tecan Spark® multimode plate reader. Subsequently, 10 µl aliquots from each peptide dilution were transferred to MH agar (1.5%) plates to determine the minimum bactericidal concentration (MBC) which was assessed by establishing at which concentration no visible growth of bacteria (assessed via colony formation) on the plate was observed.

E. coli = assay: Live/dead SYTO 9/PI fluorescence imaging; type: cell-based, Escherichia coli; settings: mid-log phase E. coli, 2× MIC; red = damaged membranes
[2] = molecular target: T1, Sequencing Grade Modified Trypsin (Sus scrofa, UniProt P00761); assay: Stability with trypsin by LC-MS; type: in vitro ADME; settings: 5 µM SGMT trypsin, 50 mM Tris-HCl, 1 mM CaCl2, pH 7.6, 24 h, 37 °C; read-out LC-MS (ESI)
T1 construct: purchased Promega
T1 sequence (P00761 9-231): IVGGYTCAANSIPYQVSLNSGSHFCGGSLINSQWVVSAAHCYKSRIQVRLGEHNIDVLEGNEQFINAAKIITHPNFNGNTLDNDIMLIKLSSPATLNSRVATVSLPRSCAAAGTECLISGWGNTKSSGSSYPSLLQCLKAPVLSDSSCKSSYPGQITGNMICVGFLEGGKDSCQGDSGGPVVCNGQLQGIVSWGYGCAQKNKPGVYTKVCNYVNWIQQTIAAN
Procedure: (§2) The antimicrobial activity and structural stability of arginine-rich peptides were evaluated in the presence of human serum (20% and 50 %) and 5 µM Sequencing Grade Modified Trypsin (SGMT, Promega). Briefly, fresh human blood was collected in EDTA tubes and allowed to clot at room temperature for 1 h. Serum was then collected following centrifugation at 2,000 r.p.m. for 10 min at 4 °C. Peptides were incubated with 20%, 50% human serum and 5 µM SGMT in 50 mM Tris-HCl buffer (1 mM CaCl₂, pH 7.6) for 24 h at 37 °C. After the incubation period, the solutions were further incubated with E. coli (ATCC 25922 and O157:H7), P. aeruginosa (PA01, NCTC13437) and S. aureus (ATCC12600), and the MIC was assessed as described in the ‘Antibacterial assessment’ section. Additionally, the samples were analysed using electrospray ionization MS to monitor structural changes based on the molecular weight of the peptides.

S. aureus (ATCC12600) = type: cell-based, Staphylococcus aureus; settings: S. aureus ATCC12600
Procedure: as §1

P. aeruginosa (PA01) = type: cell-based, Pseudomonas aeruginosa
Procedure: as §1, §2

E. coli (O157:H7) = type: cell-based, Escherichia coli
Procedure: as §1

S. aureus ATCC 12600 = assay: Membrane integrity, PI uptake; type: cell-based, Staphylococcus aureus; settings: S. aureus ATCC 12600, 5 µg ml−1 PI, 1 h
Procedure: Propidium iodide (PI) uptake was used to assess the permeabilization of the bacterial membrane upon incubation with peptides. E. coli and S. aureus cells, adjusted to an OD600 of 0.5, were placed into a 96-well plate containing 5 mM HEPES buffer (pH 7.4, supplemented with 5 mM glucose) and incubated with 5 µg ml^−1 PI for 15 min. Afterwards, different peptide concentrations were added, and PI uptake was rapidly measured every 10 min over a 1 h period using a Tecan Spark® microplate reader (λex=515 nm, λem=620 nm).

[3] = Stability in human serum by LC-MS; type: in vitro ADME; settings: human serum (20% and 50%), 24 h, 37 °C; read-out LC-MS (ESI)
Procedure: as §2

[4] = tested on: P. aeruginosa (PAO1) biofilms; assay: Disruption of pre-established biofilms, resazurin; type: cell-based, Pseudomonas aeruginosa; settings: 48 h P. aeruginosa biofilm, peptide at 2× MIC, 18 h, 37 °C
Procedure: To establish mature P. aeruginosa (PAO1) biofilms, an overnight culture was diluted to an OD600 of 0.01 in 120 µl of M63 medium (supplemented with 1 mM MgSO₄ and 23 µM L-arginine) and incubated in flat-bottom 96-well plates at 37 °C for 48 h. Afterwards, individual wells containing biofilm were rinsed three times with PBS, and 150 µl MH broth was added with either 0.5× and 2× MIC peptides. 100 µg mL^−1 resazurin was added to measure the biofilm metabolic activity for 18 h at 37 °C using a Tecan Spark® microplate reader (λex=520 nm/λem=590 nm). c.f.u. counts were established by plating aliquots of a dilution series onto MH agar followed by overnight incubation at 37 °C. Residual biofilm biomass was subsequently quantified using 0.1% CV staining.
Three-dimensional images of biofilm communities, with and without peptide exposure, were captured using an All-in-One Fluorescence Microscope (Keyence, Japan). Pre-established biofilms in a 96-well plate were incubated with 2× MIC peptides for 3 h at 37 °C. Dual staining was performed with 5 µl of SYTO 9/PI for 30 min. Biofilm thickness was assessed through 2.0 µm optical cross-sections with 50 µm pinholes.

[5] = 10 µl aliquots plated on MH agar, no visible colonies
[6] = MH broth, 5×10^6 cells, 24 h, 37 °C, absorbance 600 nm, triplicate

N=C(N)NCCC[C@@H]1NC(=O)[C@H](CCCNC(=N)N)NC(=O)[C@H](CCCNC(=N)N)NC(=O)[C@H](Cc2ccccc2)NC(=O)[C@H](Cc2ccccc2)NC(=O)[C@H](Cc2ccccc2)NC(=O)[C@H](Cc2ccccc2)NC(=O)[C@H](CCCNC(=N)N)NC1=O [CP-R4F4] (cyclo(RRRRFFFF))
MIC and MBC values over all tested strains [1]: 15.62 to 250 µM
Membrane damage, live/dead SYTO 9/PI staining (E. coli): high presence of red-stained cells indicative of damaged membranes
Stability with trypsin (LC chromatogram and mass spectrum) [2]: appeared at the same retention time in both the absence and presence of proteases
MBC (S. aureus (ATCC12600); [5]): 125 µM (≈ 152 µg/mL)
MIC (S. aureus (ATCC12600); [6]): 62.5 µM (≈ 75.8 µg/mL)
MIC, Control (P. aeruginosa (PA01); control without serum or trypsin): 31.25 µM (≈ 37.9 µg/mL)
MIC, Trypsin (P. aeruginosa (PA01); peptide incubated with 5 µM SGMT trypsin in 50 mM Tris-HCl, 1 mM CaCl2, pH 7.6, 24 h at 37 °C before MIC): 31.25 µM (≈ 37.9 µg/mL)
MIC, 20% human serum (P. aeruginosa (PA01); peptide incubated with 20% human serum 24 h at 37 °C before MIC): 31.25 µM (≈ 37.9 µg/mL)
MIC, 50% human serum (P. aeruginosa (PA01); peptide incubated with 50% human serum 24 h at 37 °C before MIC): 125 µM (≈ 152 µg/mL)
MBC (E. coli (O157:H7); [5]): 62.5 µM (≈ 75.8 µg/mL)
MIC (E. coli (O157:H7); [6]): 31.25 µM (≈ 37.9 µg/mL)
PI uptake, membrane integrity (S. aureus ATCC 12600): membrane-disruptive activity
Stability with serum proteases (LC chromatogram and mass spectrum) [3]: appeared at the same retention time in both the absence and presence of proteases
Disruption of mature biofilm (resazurin metabolic activity) [4]: significantly disrupted
